According to ChEMBL document CHEMBL3393036, “Tetra-substituted pyridinylimidazoles as dual inhibitors of p38α mitogen-activated protein kinase and c-Jun N-terminal kinase 3 for potential treatment of neurodegenerative diseases” (J Med Chem, 2015):
Converted amounts (≈) assume the structure as drawn.

Legend:
[1] = biological target: Mitogen-activated protein kinase 14 (Homo sapiens, UniProt Q16539); assay: Inhibition of p38alpha (unknown origin) assessed as phosphorylation of ATF-2 by ELISA
Homo sapiens = species on record: Homo sapiens; assay: Selectivity ratio of IC50 for JNK3 (unknown origin) to IC50 for p38alpha (unknown origin)
[2] = Solubility in aqueous PBS-buffer at pH 7.4; assay type: physicochemical
U2OS = assay: Cytotoxicity against human U2OS cells assessed as morphology up to 50 uM by DAPI staining assay; assay type: cell-based
[3] = Metabolic stability in human liver microsomes assessed as compound remaining after 240 mins by LC-MS/MS analysis; assay type: ADME; settings: read-out: Stability
[4] = biological target: Mitogen-activated protein kinase 10 (Homo sapiens, UniProt P53779); assay: Inhibition of JNK3 (unknown origin) assessed as phosphorylation of ATF-2 by ELISA
Sequence of Mitogen-activated protein kinase 10 (P53779 whole entry): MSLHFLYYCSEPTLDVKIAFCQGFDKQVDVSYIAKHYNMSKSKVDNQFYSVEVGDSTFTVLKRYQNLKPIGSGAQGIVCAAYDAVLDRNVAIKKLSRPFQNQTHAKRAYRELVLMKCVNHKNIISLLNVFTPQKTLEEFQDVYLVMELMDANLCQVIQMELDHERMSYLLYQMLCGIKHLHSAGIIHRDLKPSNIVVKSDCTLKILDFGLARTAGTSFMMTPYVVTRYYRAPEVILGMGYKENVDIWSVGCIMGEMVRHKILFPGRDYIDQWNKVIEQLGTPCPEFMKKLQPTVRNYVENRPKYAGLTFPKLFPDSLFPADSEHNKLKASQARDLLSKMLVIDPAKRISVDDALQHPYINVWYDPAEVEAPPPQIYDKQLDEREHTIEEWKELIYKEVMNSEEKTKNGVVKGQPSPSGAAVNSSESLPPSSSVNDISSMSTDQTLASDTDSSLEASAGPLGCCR

Sequence of Mitogen-activated protein kinase 14 (Q16539 whole entry): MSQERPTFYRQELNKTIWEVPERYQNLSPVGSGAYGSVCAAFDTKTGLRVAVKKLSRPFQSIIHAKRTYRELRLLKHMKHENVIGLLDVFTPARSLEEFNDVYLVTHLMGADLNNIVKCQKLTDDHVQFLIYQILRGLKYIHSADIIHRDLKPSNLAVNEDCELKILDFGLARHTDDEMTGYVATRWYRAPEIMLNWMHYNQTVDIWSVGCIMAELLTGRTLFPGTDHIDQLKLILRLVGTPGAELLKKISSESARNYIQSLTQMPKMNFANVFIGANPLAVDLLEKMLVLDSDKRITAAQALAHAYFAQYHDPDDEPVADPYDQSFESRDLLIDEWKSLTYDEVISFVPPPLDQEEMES

| Compound | IC50 [1] [µM] | Ratio IC50 (Homo sapiens) | solubility [2] [µg/mL] | remaining at 4 h [3] [%] | IC50 [4] [µM] | Activity (U2OS) |
| --- | --- | --- | --- | --- | --- | --- |
| CC(=O)Nc1cc(-c2c(-c3ccc(F)cc3)nc(S/C=C\C(=O)O)n2C2CCCC2)ccn1 | 0.164 | 0.3 | – | – | 0.045 | – |
| CC(=O)Nc1cc(-c2c(-c3ccc(F)cc3)nc(SC3CCC(C(=O)O)CC3O)n2CC2CCCO2)ccn1 (racemic) | 0.612 | 4.3 | – | – | 2.63 | – |
| CC(=O)Nc1cc(-c2c(-c3ccc(F)cc3)nc(SCC(=O)N(C)C)n2C)ccn1 | 0.14 | 8.5 | – | – | 1.19 | – |
| COC(Cn1c(SCCC(=O)O)nc(-c2ccc(F)cc2)c1-c1ccnc(NC(C)=O)c1)OC | 1.7 | 0.2 | – | – | 0.269 | – |
| O=C(O)/C=C\Sc1nc(-c2ccc(F)cc2)c(-c2ccnc(Nc3ccccc3)c2)[nH]1 | 0.036 | 0.5 | – | – | 0.017 | Non-toxic |
| CC(=O)Nc1cc(-c2c(-c3ccc(F)cc3)nc(S/C=C/C(=O)O)n2CC2CC2)ccn1 | 0.208 | 0.8 | – | – | 0.17 | – |
| CC(=O)Nc1cc(-c2c(-c3ccc(F)cc3)nc(S/C=C\C(=O)O)n2C2CCC2)ccn1 | 0.211 | 0.2 | – | – | 0.047 | – |
| COC(Cn1c(S/C=C\C(=O)O)nc(-c2ccc(F)cc2)c1-c1ccnc(NC(C)=O)c1)OC | 0.335 | 0.1 | – | – | 0.033 | – |
| O=C(O)/C=C\Sc1nc(-c2ccc(F)cc2)c(-c2ccnc(Nc3ccccc3)c2)n1CC1CC1 | 0.354 | 0.2 | – | – | 0.054 | – |
| CCNC(=O)N1CCC(Nc2cc(-c3c(-c4ccc(F)cc4)nc(S/C=C\C(=O)O)n3C)ccn2)CC1 | 0.146 | 0.4 | – | – | 0.061 | – |
| COC(Cn1c(SCC#N)nc(-c2ccc(F)cc2)c1-c1ccnc(NC2CC2)c1)OC | 0.153 | 0.5 | – | – | 0.079 | Non-toxic |
| CC(=O)Nc1cc(-c2c(-c3ccc(F)cc3)nc(SCCC(=O)O)n2C)ccn1 | 0.246 | 0.4 | – | – | 0.091 | – |
| CCOC(=O)/C=C/Sc1nc(-c2ccc(F)cc2)c(-c2ccnc(NC(C)=O)c2)n1C1CC1 | 0.451 | 1.5 | – | – | 0.678 | – |
| CCOC(=O)/C=C\Sc1nc(-c2ccc(F)cc2)c(-c2ccnc(Nc3ccccc3)c2)[nH]1 | 0.146 | 0.5 | – | – | 0.08 | – |
| COC(Cn1c(SCC#N)nc(-c2ccc(F)cc2)c1-c1ccnc(F)c1)OC | 0.642 | 6.6 | – | – | 4.22 | – |
| CCOC(=O)/C=C/Sc1nc(-c2ccc(F)cc2)c(-c2ccnc(NC(C)=O)c2)n1CC(OC)OC | 2.18 | 1 | – | – | 2.17 | – |
| CC(=O)Nc1cc(-c2c(-c3ccc(F)cc3)nc(SC3CCC(C(=O)O)CC3O)n2C2CCCCC2)ccn1 (stereo not given) | 0.416 | 0.2 | – | – | 0.079 | – |
| COC(Cn1c(S/C=C\C(=O)O)nc(-c2ccc(F)cc2)c1-c1ccnc(NC2CC2)c1)OC | 0.128 | 0.1 | – | – | 0.012 | – |
| CCOC(=O)/C=C/Sc1nc(-c2ccc(F)cc2)c(-c2ccnc(NC(C)=O)c2)n1CC1CC1 | 0.655 | 1.8 | – | – | 1.22 | – |
| CC(=O)CSc1nc(-c2ccc(F)cc2)c(-c2ccnc(NC(C)=O)c2)n1C | 0.036 | 7.1 | – | – | 0.255 | – |

Continued by falling IC50 [1], values first:

| IC50 [1] [µM] | Ratio IC50 (Homo sapiens) | solubility [2] [µg/mL] | remaining at 4 h [3] [%] | IC50 [4] [µM] | Compound | Activity (U2OS) |
| --- | --- | --- | --- | --- | --- | --- |
| 1.67 | 0.2 | – | – | 0.266 | CC(=O)Nc1cc(-c2c(-c3ccc(F)cc3)nc(SCC(=O)O)n2C)ccn1 | – |
| 0.764 | 0.2 | – | – | 0.18 | CC(=O)Nc1cc(-c2c(-c3ccc(F)cc3)nc(SC3CCC(C(=O)O)CC3O)n2C)ccn1 (stereo not given) | – |
| 0.723 | 0.3 | – | – | 0.226 | CC(=O)Nc1cc(-c2c(-c3ccc(F)cc3)nc(S/C=C\C(=O)O)n2CC(O)CO)ccn1 (stereo not given) | – |
| 0.297 | 0.7 | – | – | 0.199 | COC(=O)CSc1nc(-c2ccc(F)cc2)c(-c2ccnc(NC(C)=O)c2)n1C | – |
| 0.191 | 0.3 | – | – | 0.055 | CC(=O)Nc1cc(-c2c(-c3ccc(F)cc3)nc(S/C=C\C(=O)O)n2C)ccn1 | – |
| 0.181 | 1.2 | – | – | 0.213 | O=C(O)/C=C/Sc1nc(-c2ccc(F)cc2)c(-c2ccnc(Nc3ccccc3)c2)n1CC1CC1 | – |
| 0.039 | 0.6 | – | – | 0.025 | CC(=O)Nc1cc(-c2c(-c3ccc(F)cc3)nc(S/C=C\C(=O)O)n2CC2CCCCC2)ccn1 | – |
| 0.034 | 0.8 | 930 (≈ 1860 µM) | 56 | 0.026 | CCC(C)Nc1cc(-c2c(-c3ccc(F)cc3)nc(S/C=C\C(=O)O)n2CC(OC)OC)ccn1 (stereo not given) | Non-toxic |
| 0.03 | 0.6 | 1200 (≈ 2650 µM) | 70 | 0.018 | CC(=O)Nc1cc(-c2c(-c3ccc(F)cc3)nc(S/C=C\C(=O)O)n2CC2CC2)ccn1 | Non-toxic |
